Structures can show the parent of a compound that is named as a salt.
Experiments:
EP1 receptors [1] = target: T1, EP1 receptors (Homo sapiens, UniProt P34995); assay: Binding assay for the human prostanoid EP1 receptor (competition with [3H]-PGE2); set-up: expressed in transfected cells; host or cells: CHO-K1 cells, membrane fraction; settings: [3H]-PGE2 competition; averages of a number of experiments; read-out: pIC50 value, binding assay for the human prostanoid EP1 receptor (converted)
T1 sequence (P34995 1-402): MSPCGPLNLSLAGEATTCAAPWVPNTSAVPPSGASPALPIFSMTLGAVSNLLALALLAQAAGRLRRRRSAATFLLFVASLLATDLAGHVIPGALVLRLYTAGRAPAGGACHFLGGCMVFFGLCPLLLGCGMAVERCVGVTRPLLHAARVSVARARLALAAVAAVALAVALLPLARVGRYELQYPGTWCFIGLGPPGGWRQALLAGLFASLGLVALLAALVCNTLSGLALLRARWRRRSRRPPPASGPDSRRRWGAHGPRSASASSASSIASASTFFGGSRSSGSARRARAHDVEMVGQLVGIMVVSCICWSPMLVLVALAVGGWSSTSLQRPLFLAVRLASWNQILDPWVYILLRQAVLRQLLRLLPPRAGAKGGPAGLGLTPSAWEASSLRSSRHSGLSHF
Outline: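 Competition against 3 nM (final) tritiated PGE2 at 30° C for 30 min, pH 6 MES assay buffer, using membranes of stably transfected CHO-K1 cells. Filter-retained counts by scintillation; nonlinear curve fitting gives concentration inhibiting 50% of specific binding.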

EP1 receptors [2] = target: T1, EP1 receptors; assay: human EP1 calcium mobilisation assay (CHO-K1 cells, FLIPR, PGE2); type: cell-based; set-up: expressed in transfected cells; host or cells: CHO-K1 cells, pCIN vector; settings: free bases or sodium salts; averages of a number of experiments; read-out: functional pKi value, human EP1 calcium mobilisation assay (converted)
Procedure: Briefly, the antagonist properties of compounds are assessed by their ability to inhibit the mobilisation of intracellular calcium ([Ca^2+]i) in response to activation of EP1 or EP3 receptors by the natural agonist hormone prostaglandin E2 (PGE2). Increasing concentrations of antagonist reduce the amount of calcium that a given concentration of PGE2 can mobilise. The net effect is to displace the PGE2 concentration-effect curve to higher concentrations of PGE2. The amount of calcium produced is assessed using a calcium-sensitive fluorescent dye such as Fluo-4, AM and a suitable instrument such as a Fluorimetric Imaging Plate Reader (FLIPR). Increasing amounts of [Ca^2+]i produced by receptor activation increase the amount of fluorescence produced by the dye and give rise to an increasing signal. The signal may be detected using the FLIPR instrument and the data generated may be analysed with suitable curve-fitting software.
The human EP1 or EP3 calcium mobilisation assay (hereafter referred to as ‘the calcium assay’) utilises Chinese hamster ovary-K1 (CHO-K1) cells into which a stable (pCIN; BioTechniques 20 (1996): 102-110) vector containing either EP1 or EP3 cDNA has previously been transfected. Cells are cultured in suitable flasks containing culture medium such as DMEM:F-12 supplemented with 10% v/v foetal calf serum, 2 mM L-glutamine, 0.25 mg/ml geneticin, 100 μM flurbiprofen and 10 µg/ml puromycin. For assay, cells are harvested using a proprietary reagent that dislodges cells such as Versene. Cells are re-suspended in a suitable quantity of fresh culture media for introduction into a 384-well plate. Following incubation for 24 hours at 37° C. the culture media is replaced with a medium containing Fluo-4 and the detergent pluronic acid, and a further incubation takes place. Concentrations of compounds are then added to the plate in order to construct concentration-effect curves. This may be performed on the FLIPR in order to assess the agonist properties of the compounds. Concentrations of PGE2 are then added to the plate in order to assess the antagonist properties of the compounds. The data so generated may be analysed by means of a computerised curve-fitting routine. The concentration of compound that elicits a half-maximal inhibition of the calcium mobilisation induced by PGE2 (pIC50) may then be estimated.

Row | SMILES | IC50 (EP1 receptors [1]) [nM] | Ki (EP1 receptors [2]) [nM]
1 | Clc1ccc(OCc2ccccc2)c(Cc2nc(-c3nc4ccc(N5CCCC5)nc4[nH]3)cs2)c1 [Example 137, 2-[2-({5-Chloro-2-[(phenylmethyl)oxy]phenyl}methyl)-1,3-thiazol-4-yl]-5-(1-pyrrolidinyl)-1H-imidazo[4,5-b]pyridinehydrochloride] | ≤ 1000 | < 1000
2 | O=C(O)c1cccc2nc(-c3csc(Cc4cc(Cl)ccc4OCc4ccccc4)n3)[nH]c12 [Example 139, 2-[2-({5-Chloro-2-[(phenylmethyl)oxy]phenyl}methyl)-1,3-thiazol-4-yl]-1H-benzimidazole-4-carboxylic acid] | ≤ 1000 | < 1000
3 | CC(C)COc1ccc(Cl)cc1C(F)(F)c1nc(-c2nc3ccccc3[nH]2)cs1 [Example 141, 2-{2-[{5-chloro-2-[(2-methylpropyl)oxy]phenyl}(difluoro)methyl]-1,3-thiazol-4-yl}-1H-benzimidazole hydrochloride] | ≤ 1000 | > 1000
4 | CC(C)COc1ccc(Cl)cc1Cc1nc(-c2nc3ccc(N4CCN(C)CC4)cc3[nH]2)cs1 [Example 142, 2-[2-({5-Chloro-2-[(2-methylpropyl)oxy]phenyl}methyl)-1,3-thiazol-4-yl]-5-(4-methyl-1-piperazinyl)-1H-benzimidazole hydrochloride] | ≤ 31.6 | < 1000
5 | OCc1cccc2nc(-c3csc(Cc4cc(Cl)ccc4OCc4ccccc4)n3)[nH]c12 [Example 143, {2-[2-({5-Chloro-2-[(phenylmethyl)oxy]phenyl}methyl)-1,3-thiazol-4-yl]-1H-benzimidazol-4-yl}methanol hydrochloride] | ≤ 1000 | > 1000
6 | CC(C)COc1ccc(Cl)cc1Cc1nc(-c2nc3ccc(N4CCN(C)CC4)nc3[nH]2)cs1 [Example 146, 2-[2-({5-chloro-2-[(2-methylpropyl)oxy]phenyl}methyl)-1,3-thiazol-4-yl]-5-(4-methyl-1-piperazinyl)-1H-imidazo[4,5-b]pyridinehydrochloride] | ≤ 31.6 | < 1000
7 | CN1CCN(c2ccc3nc(-c4csc(Cc5cc(Cl)ccc5OCc5ccccc5)n4)[nH]c3c2)CC1 [Example 148, 2-[2-({5-Chloro-2-[(phenylmethyl)oxy]phenyl}methyl)-1,3-thiazol-4-yl]-5-(4-methyl-1-piperazinyl)-1H-benzimidazole hydrochloride] | ≤ 31.6 | < 1000
8 | Clc1ccc(OCc2ccccc2)c(Cc2nc(-c3nc4ccc(N5CCOCC5)cc4[nH]3)cs2)c1 [Example 149, 2-[2-({5-Chloro-2-[(phenylmethyl)oxy]phenyl}methyl)-1,3-thiazol-4-yl]-5-(4-morpholinyl)-1H-benzimidazole hydrochloride] | ≤ 31.6 | < 1000
9 | Clc1ccc(OCc2ccccc2)c(Cc2nc(-c3nc4cc5cn[nH]c5cc4[nH]3)cs2)c1 [Example 150, 6-[2-({5-Chloro-2-[(phenylmethyl)oxy]phenyl}methyl)-1,3-thiazol-4-yl]-1,5-dihydroimidazo[4,5-f]indazolehydrochloride] | ≤ 31.6 | < 1000
10 | CN1CCN(c2ccc3[nH]c(-c4csc(Cc5cc(Cl)ccc5OCc5ccccc5)n4)nc3n2)CC1 [Example 151, 2-[2-({5-Chloro-2-[(phenylmethyl)oxy]phenyl}methyl)-1,3-thiazol-4-yl]-5-(4-methyl-1-piperazinyl)-1H-imidazo[4,5-b]pyridine hydrochloride] | ≤ 31.6 | < 1000
11 | CN(C)c1ccc2nc(-c3csc(Cc4cc(Cl)ccc4OCc4ccccc4)n3)[nH]c2n1 [Example 152, 2-[2-({-5-Chloro-2-[(phenylmethyl)oxy]phenyl}methyl)-1,3-thiazol-4-yl]-N,N-dimethyl-1H-imidazo[4,5-b]pyridin-5-amine hydrochloride] | ≤ 31.6 | < 1000
12 | OCCc1ccc2nc(-c3csc(Cc4cc(Cl)ccc4OCc4ccccc4)n3)[nH]c2c1 [Example 153, 2-{2-[2-({5-Chloro-2-[(phenylmethyl)oxy]phenyl}methyl)-1,3-thiazol-4-yl]-1H-benzimidazol-5-yl}ethanol] | ≤ 31.6 | < 1000
13 | Cc1nnc(-c2csc(Cc3cc(Cl)ccc3OCc3ccccc3)n2)[nH]1 [Example 159, 3-[2-({5-Chloro-2-[(phenylmethyl)oxy]phenyl}methyl)-1,3-thiazol-4-yl]-5-methyl-1H-1,2,4-triazole] | ≤ 1000 | < 1000
14 | Clc1ccc(OCc2ccccc2)c(Cc2nc(-c3cn4ccccc4n3)cs2)c1 [Example 160, 2-[2-({5-Chloro-2-[(phenylmethyl)oxy]phenyl}methyl)-1,3-thiazol-4-yl]imidazo[1,2-a]pyridine] | ≤ 1000 | < 1000
15 | CC(C)COc1ccc(Cl)cc1Nc1nc(-c2nc3ccccc3[nH]2)cs1 [Example 164, 4-(1H-Benzimidazol-2-yl)-N-{5-chloro-2-[(2-methylpropyl)oxy]phenyl}-1,3-thiazol-2-aminehydrochloride] | ≤ 31.6 | < 1000

Next, values leading:

Row | IC50 (EP1 receptors [1]) [nM] | Ki (EP1 receptors [2]) [nM] | SMILES
16 | ≤ 31.6 | ≤ 31.6 | CC(C)COc1ccc(Cl)cc1Cc1nc(-c2nc3nccnc3[nH]2)cs1 [Example 136, 2-[2-({5-Chloro-2-[(2-methyl-propyl)oxy]-phenyl}methyl)-1,3-thiazol-4-yl]-1H-imidazo[4,5-b]pyrazinehydrochloride]
17 | ≤ 31.6 | < 1000 | CC(C)COc1ccc(Cl)cc1Cc1nc(-c2nc3ccc(Cl)nc3[nH]2)cs1 [Example 140, 5-Chloro-2-[2-({5-chloro-2-[(2-methylpropyl)oxy]phenyl}methyl)-1,3-thiazol-4-yl]-1H-imidazo[4,5-b]pyridinehydrochloride]
18 | ≤ 1000 | ≤ 31.6 | CC(C)COc1ccc(Cl)cc1Cc1nc(-c2nc3ccc(N4CCOCC4)nc3[nH]2)cs1 [Example 144, 2-[2-({5-Chloro-2-[(2-methylpropyl)oxy]phenyl}methyl)-1,3-thiazol-4-yl]-5-(4-morpholinyl)-1H-imidazo[4,5-b]pyridine]
19 | ≤ 1000 | < 1000 | CC(C)COc1ccc(Cl)cc1Cc1nc(-c2nc3ccc(N4CCCC4)nc3[nH]2)cs1 [Example 145, 2-[2-({5-Chloro-2-[(2-methylpropyl)oxy]phenyl}methyl)-1,3-thiazol-4-yl]-5-(1-pyrrolidinyl)-1H-imidazo[4,5-b]pyridinehydrochloride]
20 | ≤ 1000 | < 1000 | CC(C)COc1ccc(Cl)cc1Cc1nc(-c2nc3ccc(N4CCCCC4)nc3[nH]2)cs1 [Example 147]
21 | ≤ 31.6 | ≤ 31.6 | CC(C)COc1ccc(Cl)cc1Cc1nc(-c2nc3ccc(CCO)cc3[nH]2)cs1 [Example 154, 2-{2-[2-({5-Chloro-2-[(2-methylpropyl)oxy]phenyl}methyl)-1,3-thiazol-4-yl]-1H-benzimidazol-5-yl}ethanol]
22 | ≤ 1000 | < 1000 | CC(C)COc1ccc(Cl)cc1Cc1nc(-c2nc3cc(F)c(F)cc3[nH]2)cs1 [Example 155, 2-[2-({5-Chloro-2-[(2-methylpropyl)oxy]phenyl}methyl)-1,3-thiazol-4-yl]-5,6-difluoro-1H-benzimidazole]
23 | ≤ 1000 | < 1000 | Cc1nnc(-c2csc(Cc3cc(Cl)ccc3OCC(C)C)n2)[nH]1 [Example 158, 3-[2-({5-Chloro-2-[(2-methyl-propyl)oxy]-phenyl}methyl)-1,3-thiazol-4-yl]-5-methyl-1H-1,2,4-triazole]

Source: patent US20080207708A1, “Oxazole and Thiazole Compounds and Their Use in the Treatment of Pge2 Mediated Disorders” (GLAXO GROUP LIMITED, priority 2005, published 2008)
